Reference: ChEMBL document CHEMBL1147122, “Eurysterols A and B, cytotoxic and antifungal steroidal sulfates from a marine sponge of the genus Euryspongia” (J Nat Prod, 2007)

Key:
Candida albicans [1] = assay: Antifungal activity against amphotericin-B-resistant Candida albicans ATCC 90873 after 14 to 16 hrs; type: functional
Candida albicans [2] = assay: Antifungal activity against wild type-Candida albicans ATCC 32354 after 14 to 16 hrs; type: functional
HCT-116 = assay: Cytotoxicity against human HCT116 cells after 72 hrs; type: cell-based; settings: HCT-116, 72 h

| SMILES | MIC (Candida albicans [1]) | MIC (Candida albicans [2]) | IC50 (HCT-116) |
| --- | --- | --- | --- |
| CC(C)C/C=C/[C@@H](C)[C@H]1CC[C@@H]2[C@]1(C)CC[C@H]1[C@@]23C[C@@H](O)[C@@]2(O)C[C@@H](OS(=O)(=O)[O-])CC[C@]12CO3.[Na+] [EURYSTEROL B] | 62.5 µg/mL | 62.5 µg/mL | 14.3 µg/mL |
| CC(C)CCC[C@@H](C)[C@H]1CC[C@@H]2[C@]1(C)CC[C@H]1[C@@]23C[C@@H](O)[C@@]2(O)C[C@@H](OS(=O)(=O)[O-])CC[C@]12CO3.[Na+] [EURYSTEROL A] | 15.6 µg/mL | 15.6 µg/mL | 2.9 µg/mL |
